Measured values: article PMC11574045, “A cofactor-induced repressive type of transcription factor condensation can be induced by synthetic peptides to suppress tumorigenesis” (The EMBO Journal, 2024)
“And” between values parts separate entries of the source, which are not always exact repeats. Equal entries are not always repeated. Ends that are not written are not given here.

What was measured:
[1] = test system: TEAD4^high or TEAD4^low GC patient-derived xenografts; test: Patient-derived xenograft (PDX) model; assay type: in vivo, mouse; parameters: Tumor area, TEAD4High PDX / Tumor area, TEAD4Low PDX: unit not given beside the values
Description: To establish PDX models, cell suspensions from GC patients were prepared as they were for PDOs. Subcutaneous implantation was performed on one flank of 5-week-old SCID mice weighing from 16 to 18 g and that were anesthetized using a isoflurane/oxygen mixture. Tumor growth was monitored by taking biweekly measurements of the implantation sites. Serial engraftments of each tumor were performed when the tumor reached a volume of ~500 mm^3. Subsequently, PDX tumors were enzymatically disassociated to form a single-cell suspension. To reduce murine cell populations, the cell suspension was then subjected to magnetic mouse cell depletion using a MACS mouse cell depletion kit (Miltenyi Biotech, Bergisch Gladbach, Germany). Following the cell depletion, all established PDX cell lines were maintained at steady rates of proliferation in RPMI 1640 medium. Additionally, a small piece of tumor tissue was obtained using a scalpel and fixed in 10% formalin-buffered saline for histological analysis.

TEAD4-DNA = target: T1, TEAD4-DNA (Homo sapiens, UniProt Q15561); test: DAPI imaging of M-CAT DNA organization with purified proteins; assay type: biochemical; details: GLUP 1 μg/ml (0.5 μM)
T1 construct: His; made in house; host or cells: Escherichia coli BL21(DE3)
Description: LLPS is considered as principle for chromosome compartmentalization and condensation (Hildebrand and Dekker, [2020]; Shin et al, [2018]). […] To test this hypothesis, we used confocal microscopy to observe the morphology of M-CAT DNA (Fig. 4D). […] When VGLL4 protein was added into the mixture, the DNA chains appeared more aggregated and tangled (Fig. 4D).
To confirm cellular entry of GLUP, we performed immunostaining of live cells treated with a fluorescein-labeled version of the peptide (FAM-GLUP). […] We then examined the potential effect of GLUP on TEAD4-mediated perturbation of DNA conformation.

AZ-521 cells = assay type: cell-based, human; details: 48 h
Description: For cell viability assays, cells were seeded into 96-well plates overnight to attach them to the plates, and then treated with GLUP for 48 h. Cells incubated for indicated periods of time were analyzed using an ATP-based CellTiter-Lumi^TM Plus kit (Beyotime) according to the manufacturer’s instructions. The intracellular ATP contents were measured using a BioTek Synergy^TM NEO multi-detector microplate reader (Thermo). Cell viability was calculated using the equation cell viability (%) = [[value (test) − value (blank)] × [value (control) − value (blank)]] −1 × 100.

CTGF = test: RNA-scope of CTGF in tumor tissues; assay type: in vivo, mouse; details: tumors of GLUP-treated mice
Description: RNA-scope was performed according to manufacturer’s protocols (RNAscope Red Detection Kit, ACDbio, 322360). Briefly, the tumor sections (3 μm thickness) were obtained from MNU-generated gastric tumor tissues. The sections were deparaffinized, retrieved, and then hybridized with Ctgf probes following the manufacturer’s instructions (ACD, Hayward, CA, USA). Subsequently, the signal of hybridized probes was further visualized using RED dye-labeled probes. Finally, the samples were redyed, this time with hematoxylin, and mounted with VectaMount Permanent Mounting Medium (Vector Laboratories, Burlingame, CA, USA), and photographed using a Nikon Upright Fluorescence Microscope (Nikon, Japan). Positive and negative control probes were used for each experiment to help derive conclusions from the data.

TEAD4 = target: T2, TEAD4 (Homo sapiens, UniProt Q15561); test: In vitro LLPS (droplet formation) assay; assay type: biochemical
T2 construct: His; made in house; host or cells: Escherichia coli BL21(DE3)
Description: LLPS was induced at room temperature by diluting proteins and NaCl to specified concentrations (20, 150, 500 mM). After subsequent mixing, 10 μl of the reaction solution were gently transferred onto a 20 mm glass-bottomed dish (NEST, 801001) for differential interference contrast (DIC) imaging performed using a Zeiss LSM 880 confocal microscope equipped with a 20× water immersion objective lens. Unless otherwise indicated (e.g., in the figure legend), the final concentration of purified protein used for in vitro LLPS assays was 40 μM.

HGC-27 cells = test: Colony formation; assay type: cell-based, human; details: colony formation: GLUP 2 μg/ml (1 μM) every 2 days for 2 weeks
Description: (A) Cell viability levels of HGC-27 cells treated with indicated concentrations (0, 5, 10, 20, 40 μg/ml) of GLUP for 48 h (three biological replicates, n = 3). Data shown as means ± SD represent the representative results from two independent experiments. (B) Colony formation of HGC-27 cells treated with GLUP every 2 days for a 2-week duration (three biological replicates, n = 3). GLUP, 2 μg/ml (1 μM). (C) Cell viability levels of the indicated cells (from 10 different lines) treated with GLUP. […] IC50 values for the treatments of these cells with GLUP (lower). […] The box plots showing the minima, maxima, center, bounds of box and whiskers and percentiles (upper quartile, median and lower quartile). Data shown as means ± SD represent the representative results from two independent experiments. Significance was tested using the unpaired t test, ***p < 0.001. (D) Cell viability of TEAD4-overexpressing AGS cells treated with GLUP for 48 h (three biological replicates, n = 3). Data shown as means ± SD represent the representative results from two independent experiments. (E) Cell viability levels of four lines of patient-derived cells (PDCs) treated with GLUP. […] The quantification graph represents the data collected from 14 cells (n = 14). […] Tumor areas were measured (right, n = 8/group) and indicated in red circles. […]

[2] = test system: WT or TEAD4KO HGC-27 cells; test: Cut&Tag; assay type: cell-based, human; details: GLUP 10 μg/ml (5 μM)
[3] = 5 mg/kg GLUP daily for 15 d, individual mice, n = 8 (source data Fig 8I)

T2 sequence (Q15561 whole entry): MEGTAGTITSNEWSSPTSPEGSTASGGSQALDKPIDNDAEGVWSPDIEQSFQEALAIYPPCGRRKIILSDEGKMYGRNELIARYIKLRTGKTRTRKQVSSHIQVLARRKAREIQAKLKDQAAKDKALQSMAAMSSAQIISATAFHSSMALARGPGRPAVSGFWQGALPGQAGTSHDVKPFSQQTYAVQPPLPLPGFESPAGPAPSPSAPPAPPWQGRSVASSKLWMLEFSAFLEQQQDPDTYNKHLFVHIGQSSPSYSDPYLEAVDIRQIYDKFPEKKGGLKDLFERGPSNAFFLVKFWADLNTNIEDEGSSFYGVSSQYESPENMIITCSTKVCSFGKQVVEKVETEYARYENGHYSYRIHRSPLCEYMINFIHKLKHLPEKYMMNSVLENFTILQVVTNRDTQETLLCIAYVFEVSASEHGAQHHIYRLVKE
T1 sequence (Q15561 whole entry): as above

RRVCVHFHFSLSLR-NH2 (C-terminus assumed) [glup]
Tumor area, TEAD4High PDX [1, 3]: 0 and 0.0472 and 0.0501 and 0.0406 and 0.03159 and 0.05051 | Tumor area, TEAD4Low PDX [1, 3]: 0.09232 and 0.08466 and 0.08264 and 0.05322 and 0.1278 and 0.08635 and 0.1028 (2×) | Tumor response, TEAD4^high PDX ([1]; GLUP (i.v.) for 2 weeks): significantly regressed | Tumor response, TEAD4^low PDX ([1]; GLUP (i.v.) for 2 weeks): did not respond to the GLUP treatment | Effect on TEAD4-mediated DNA conformation (TEAD4-DNA): strongly promoted TEAD4-mediated formation of DNA aggregations and tangles | IC50 (AZ-521 cells): 8.1 µg/mL | Expression of TEAD4 target gene CTGF in tumor tissue (CTGF): sharply decreased in a dose-dependent manner | Turbidity of TEAD4 solution after GLUP (TEAD4; PEG solution, vials before and after GLUP): high turbidity in a PEG solution | TEAD4 droplet formation (TEAD4; mCherry-TEAD4 with FAM-GLUP 20, 40, 80 µM): strongly promoted TEAD4 droplet formation | Viability and colony formation (HGC-27 cells): obvious reduction in both the viability and colony formation | H3K27me3 signals at 3 kb regions flanking TSS ([2]; TEAD4-depleted HGC-27 cells): no such effect was detected | H3K27me3 signals at 3 kb regions flanking TSS ([2]; WT HGC-27 cells): dramatically strengthened the signals of H3K27me3
